Laboratory results from patent US11993599B2, “Therapeutic compounds” (Genentech, Inc., priority 2021, dated 2024).

Assays:
[1] = molecular target: BRM (Homo sapiens, UniProt P51531); experiment: Immunofluorescence assay for BRM degradation in SW1573 cells; type: cell-based; parameters: treated overnight at 4° C. with either BRM primary antibody (Cell signaling Cat #11966) or BRG primary antibody; endogenous in cells; host or cells: SW1573; details: 20 hours incubation; for DC50: immunofluorescence mean nuclear signal, read-out: BRM IF Degradation IC50; for BRM IF Degradation Sinf (%): normalized to a known degrader control
Sequence of BRM (P51531 whole entry): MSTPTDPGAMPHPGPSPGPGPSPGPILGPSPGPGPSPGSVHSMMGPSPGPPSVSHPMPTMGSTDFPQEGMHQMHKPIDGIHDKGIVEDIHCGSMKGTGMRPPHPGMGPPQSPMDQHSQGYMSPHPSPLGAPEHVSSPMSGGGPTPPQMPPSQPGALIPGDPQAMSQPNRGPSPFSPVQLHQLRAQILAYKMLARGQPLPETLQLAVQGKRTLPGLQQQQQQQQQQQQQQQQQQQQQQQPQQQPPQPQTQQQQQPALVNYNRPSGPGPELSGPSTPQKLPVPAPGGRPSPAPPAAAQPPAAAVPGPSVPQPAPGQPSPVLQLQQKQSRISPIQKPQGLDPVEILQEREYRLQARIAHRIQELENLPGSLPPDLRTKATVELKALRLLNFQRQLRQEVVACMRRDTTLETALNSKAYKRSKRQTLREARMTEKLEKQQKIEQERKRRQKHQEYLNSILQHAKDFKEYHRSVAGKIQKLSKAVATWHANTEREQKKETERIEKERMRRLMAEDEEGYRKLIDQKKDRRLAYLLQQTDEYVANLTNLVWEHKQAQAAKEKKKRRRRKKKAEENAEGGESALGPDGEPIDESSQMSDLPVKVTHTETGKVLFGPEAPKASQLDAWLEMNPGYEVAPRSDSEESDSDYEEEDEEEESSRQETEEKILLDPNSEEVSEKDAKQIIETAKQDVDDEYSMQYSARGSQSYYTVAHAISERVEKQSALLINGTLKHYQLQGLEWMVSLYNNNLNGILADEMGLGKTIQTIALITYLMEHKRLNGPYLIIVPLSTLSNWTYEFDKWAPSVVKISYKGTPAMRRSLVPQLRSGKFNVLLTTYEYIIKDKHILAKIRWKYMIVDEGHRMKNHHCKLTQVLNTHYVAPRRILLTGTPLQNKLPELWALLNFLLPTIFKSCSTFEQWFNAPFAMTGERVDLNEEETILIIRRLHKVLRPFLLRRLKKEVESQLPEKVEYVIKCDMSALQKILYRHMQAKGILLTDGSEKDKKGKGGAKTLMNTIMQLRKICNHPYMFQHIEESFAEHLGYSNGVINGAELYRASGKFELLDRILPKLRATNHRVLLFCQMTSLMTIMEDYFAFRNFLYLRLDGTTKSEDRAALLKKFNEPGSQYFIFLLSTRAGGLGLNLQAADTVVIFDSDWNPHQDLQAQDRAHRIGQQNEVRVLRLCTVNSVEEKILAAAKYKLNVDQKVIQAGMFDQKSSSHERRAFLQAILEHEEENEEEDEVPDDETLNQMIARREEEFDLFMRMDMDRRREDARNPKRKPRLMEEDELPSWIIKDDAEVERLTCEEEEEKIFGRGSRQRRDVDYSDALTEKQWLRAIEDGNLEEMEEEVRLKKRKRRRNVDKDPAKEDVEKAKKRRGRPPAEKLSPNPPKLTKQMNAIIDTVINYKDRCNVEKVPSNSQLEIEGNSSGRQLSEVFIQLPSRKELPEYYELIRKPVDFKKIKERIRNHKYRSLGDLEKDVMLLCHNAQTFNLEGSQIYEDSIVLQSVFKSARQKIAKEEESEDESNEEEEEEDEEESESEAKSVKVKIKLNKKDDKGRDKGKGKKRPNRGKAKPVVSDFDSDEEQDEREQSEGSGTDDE
Method in brief: (§1)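 Degradation measured as loss of nuclear BRM or BRG1 staining in SW1573 cells after 20 h compound exposure. Signal per cell was imaged and normalized to a known degrader; curves with floating maximum yielded IC50 and Dmax.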

[2] = molecular target: T1, BRG1 (Homo sapiens, UniProt P51532); experiment: Immunofluorescence assay for BRG1 degradation in SW1573 cells; type: cell-based; details: 20 hours incubation; for DC50: immunofluorescence mean nuclear signal, read-out: BRG1 IF Degradation IC50; for Dmax: SW1573, 20 h, normalized to a known degrader control, read-out: BRG1 IF Degradation Sinf (%)
T1 construct: either BRM primary antibody (Cell signaling Cat #11966) or BRG primary antibody (Abcam, ab 110641); endogenous in cells; host or cells: SW1573
T1 sequence (P51532 whole entry): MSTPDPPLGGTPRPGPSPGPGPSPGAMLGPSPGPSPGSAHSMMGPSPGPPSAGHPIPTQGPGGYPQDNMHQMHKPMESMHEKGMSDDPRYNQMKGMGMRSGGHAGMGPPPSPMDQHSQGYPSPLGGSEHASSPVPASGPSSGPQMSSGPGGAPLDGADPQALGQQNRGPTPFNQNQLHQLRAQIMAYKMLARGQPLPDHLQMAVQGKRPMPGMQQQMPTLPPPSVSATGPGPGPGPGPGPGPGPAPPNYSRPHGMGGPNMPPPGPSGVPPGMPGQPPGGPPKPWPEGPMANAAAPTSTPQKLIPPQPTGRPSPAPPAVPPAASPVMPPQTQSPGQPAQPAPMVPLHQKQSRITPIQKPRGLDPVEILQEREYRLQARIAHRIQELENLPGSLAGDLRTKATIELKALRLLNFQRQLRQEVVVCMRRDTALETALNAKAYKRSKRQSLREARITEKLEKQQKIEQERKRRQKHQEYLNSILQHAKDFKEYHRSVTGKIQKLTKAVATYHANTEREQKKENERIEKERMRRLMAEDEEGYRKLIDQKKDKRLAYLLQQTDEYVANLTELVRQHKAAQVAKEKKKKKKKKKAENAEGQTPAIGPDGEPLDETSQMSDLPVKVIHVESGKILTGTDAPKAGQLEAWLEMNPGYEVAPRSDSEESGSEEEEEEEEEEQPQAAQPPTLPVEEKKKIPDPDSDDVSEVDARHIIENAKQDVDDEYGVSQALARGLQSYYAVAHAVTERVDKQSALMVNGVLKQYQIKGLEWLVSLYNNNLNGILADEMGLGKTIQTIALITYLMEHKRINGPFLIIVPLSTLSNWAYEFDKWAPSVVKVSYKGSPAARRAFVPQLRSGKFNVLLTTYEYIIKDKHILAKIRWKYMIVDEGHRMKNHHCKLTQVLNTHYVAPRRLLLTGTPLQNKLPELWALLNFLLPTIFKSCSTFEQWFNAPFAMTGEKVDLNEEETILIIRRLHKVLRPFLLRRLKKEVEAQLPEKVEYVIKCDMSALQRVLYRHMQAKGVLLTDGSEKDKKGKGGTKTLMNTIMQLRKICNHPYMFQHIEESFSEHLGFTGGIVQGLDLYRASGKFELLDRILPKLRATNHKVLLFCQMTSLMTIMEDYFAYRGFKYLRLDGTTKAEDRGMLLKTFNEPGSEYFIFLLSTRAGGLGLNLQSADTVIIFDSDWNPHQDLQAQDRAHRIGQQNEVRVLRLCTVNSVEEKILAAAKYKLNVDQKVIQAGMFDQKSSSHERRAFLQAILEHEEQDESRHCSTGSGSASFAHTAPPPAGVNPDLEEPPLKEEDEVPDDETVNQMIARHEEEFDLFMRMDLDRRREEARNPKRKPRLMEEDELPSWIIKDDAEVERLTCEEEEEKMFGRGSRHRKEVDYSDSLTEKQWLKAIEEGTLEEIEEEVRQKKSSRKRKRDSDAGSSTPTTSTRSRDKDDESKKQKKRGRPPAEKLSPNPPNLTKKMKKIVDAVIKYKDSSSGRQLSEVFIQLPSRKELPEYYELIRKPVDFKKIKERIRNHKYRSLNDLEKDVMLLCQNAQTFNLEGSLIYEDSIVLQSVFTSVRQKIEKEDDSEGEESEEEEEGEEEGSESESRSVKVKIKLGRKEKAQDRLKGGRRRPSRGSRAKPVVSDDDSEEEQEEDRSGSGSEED
Method in brief: as §1

Nc1nnc(-c2ccccc2O)cc1N1CC2CCC(C1)N2c1ccnc(C#CCN2CCCC(F)(F)C(F)C2)c1 (stereo not drawn) [Compound 199, 2-[6-amino-5-[8-[2-[3-(3,4,4-trifluoroazepan-1-yl)prop-1-ynyl]-4-pyridyl]-3,8-diazabicyclo[3.2.1]octan-3-yl]pyridazin-3-yl]phenol]
DC50 [1]: < 0.01 µM
BRM IF Degradation Sinf (%) [1]: F (F indicates −71%-−120%)
DC50 [2]: 0.01 to 0.1 µM
Dmax [2]: 30 to 70%

CC1CCCN(CC#Cc2cc(N3C4CCC3CN(c3cc(-c5ccccc5O)nnc3N)C4)ccn2)CC1 (stereo not drawn) [Compound 200, 2-[6-amino-5-[8-[2-[3-(4-methylazepan-1-yl)prop-1-ynyl]-4-pyridyl]-3,8-diazabicyclo[3.2.1]octan-3-yl]pyridazin-3-yl]phenol]
DC50 [1]: < 0.01 µM
BRM IF Degradation Sinf (%) [1]: F (F indicates −71%-−120%)
DC50 [2]: < 0.01 µM
Dmax [2]: 71 to 120%

CC1CCCCCN1CC#Cc1cc(N2C3CCC2CN(c2cc(-c4ccccc4O)nnc2N)C3)ccn1 (stereo not drawn) [Compound 201, 2-[6-amino-5-[8-[2-[3-(2-methylazepan-1-yl)prop-1-ynyl]-4-pyridyl]-3,8-diazabicyclo[3.2.1]octan-3-yl]pyridazin-3-yl]phenol]
DC50 [1]: < 0.01 µM
BRM IF Degradation Sinf (%) [1]: F (F indicates −71%-−120%)
DC50 [2]: < 0.01 µM
Dmax [2]: 30 to 70%

Nc1nnc(-c2ccccc2O)cc1N1CC2CCC(C1)N2c1ccnc(C#CCN2CCc3ccccc3CC2)c1 [Compound 202, 2-[6-amino-5-[8-[2-[3-(1,2,4,5-tetrahydro-3-benzazepin-3-yl)prop-1-ynyl]-4-pyridyl]-3,8-diazabicyclo[3.2.1]octan-3-yl]pyridazin-3-yl]phenol]
DC50 [1]: 0.01 to 0.1 µM
BRM IF Degradation Sinf (%) [1]: E (E indicates −30%-−70%)
DC50 [2]: 0.01 to 0.1 µM
Dmax [2]: 30 to 70%

Nc1nnc(-c2ccccc2O)cc1N1CC2CCC(C1)N2c1ccnc(C#CCN2CCc3nccn3CC2)c1 [Compound 203, 2-[6-amino-5-[8-[2-[3-(5,6,8,9-tetrahydroimidazo[l,2-d][1,4]diazepin-7-yl)prop-1-ynyl]-4-pyridyl]-3,8-diazabicyclo[3.2.1]octan-3-yl]pyridazin-3-yl]phenol]
DC50 [1]: 0.01 to 0.1 µM
BRM IF Degradation Sinf (%) [1]: E (E indicates −30%-−70%)
DC50 [2]: > 0.1 µM

CC1(C)CCCN(CC#Cc2cc(N3C4CCC3CN(c3cc(-c5ccccc5O)nnc3N)C4)ccn2)CC1 [Compound 205, 2-[6-amino-5-[8-[2-[3-(4,4-dimethylazepan-1-yl)prop-1-ynyl]-4-pyridyl]-3,8-diazabicyclo[3.2.1]octan-3-yl]pyridazin-3-yl]phenol]
DC50 [1]: < 0.01 µM
BRM IF Degradation Sinf (%) [1]: F (F indicates −71%-−120%)
DC50 [2]: < 0.01 µM
Dmax [2]: 30 to 70%

N#CCC1CCN(CC#Cc2cc(N3C4CCC3CN(c3cc(-c5ccccc5O)nnc3N)C4)ccn2)CCC1(F)F (stereo not drawn) [Compound 206, 2-[1-[3-[4-[3-[3-amino-6-(2-hydroxyphenyl)pyridazin-4-yl]-3,8-diazabicyclo[3.2.1]octan-8-yl]-2-pyridyl]prop-2-ynyl]-5,5-difluoro-azepan-4-yl]acetonitrile]
DC50 [1]: 0.01 to 0.1 µM
BRM IF Degradation Sinf (%) [1]: E (E indicates −30%-−70%)
DC50 [2]: > 0.1 µM

COCC1(O)CCCN(CC#Cc2cc(N3C4CCC3CN(c3cc(-c5ccccc5O)nnc3N)C4)ccn2)CC1 (stereo not drawn) [Compound 207, 1-[3-[4-[3-[3-amino-6-(2-hydroxyphenyl)pyridazin-4-yl]-3,8-diazabicyclo[3.2.1]octan-8-yl]-2-pyridyl]prop-2-ynyl]-4-(methoxymethyl)azepan-4-ol]
DC50 [1]: 0.01 to 0.1 µM
BRM IF Degradation Sinf (%) [1]: E (E indicates −30%-−70%)
DC50 [2]: > 0.1 µM
Dmax [2]: 71 to 120%

Nc1nnc(-c2ccccc2O)cc1N1CC2CCC(C1)N2c1ccnc(C#CCN2CCCC3(CC2)CC3(F)F)c1 (stereo not drawn) [Compound 208, 2-[6-amino-5-[8-[2-[3-(2,2-difluoro-7-azaspiro[2.6]nonan-7-yl)prop-1-ynyl]-4-pyridyl]-3,8-diazabicyclo[3.2.1]octan-3-yl]pyridazin-3-yl]phenol]
DC50 [1]: < 0.01 µM
BRM IF Degradation Sinf (%) [1]: E (E indicates −30%-−70%)
DC50 [2]: < 0.01 µM
Dmax [2]: 30 to 70%

Nc1nnc(-c2ccccc2O)cc1N1CC2CCC(C1)N2c1ccnc(C#CCN2CCCC(C(F)(F)F)CC2)c1 (stereo not drawn) [Compound 209, 2-[6-amino-5-[8-[2-[3-[4-(trifluoromethyl)azepan-1-yl]prop-1-ynyl]-4-pyridyl]-3,8-diazabicyclo[3.2.1]octan-3-yl]pyridazin-3-yl]phenol]
DC50 [1]: < 0.01 µM
BRM IF Degradation Sinf (%) [1]: F (F indicates −71%-−120%)
DC50 [2]: < 0.01 µM
Dmax [2]: 30 to 70%

CC1(C)CC(O)C(O)CN(CC#Cc2cc(N3C4CCC3CN(c3cc(-c5ccccc5O)nnc3N)C4)ccn2)C1 (stereo not drawn) [Compound 210, 1-[3-[4-[3-[3-amino-6-(2-hydroxyphenyl)pyridazin-4-yl]-3,8-diazabicyclo[3.2.1]octan-8-yl]-2-pyridyl]prop-2-ynyl]-6,6-dimethyl-azepane-3,4-diol]
DC50 [1]: > 0.1 µM
BRM IF Degradation Sinf (%) [1]: E (E indicates −30%-−70%)
DC50 [2]: > 0.1 µM

CC1CN(CC#Cc2cc(N3C4CCC3CN(c3cc(-c5ccccc5O)nnc3N)C4)ccn2)CCC(F)(F)C1 (stereo not drawn) [Compound 212, 2-[6-amino-5-[8-[2-[3-(5,5-difluoro-3-methyl-azepan-1-yl)prop-1-ynyl]-4-pyridyl]-3,8-diazabicyclo[3.2.1]octan-3-yl]pyridazin-3-yl]phenol]
DC50 [1]: < 0.01 µM
BRM IF Degradation Sinf (%) [1]: F (F indicates −71%-−120%)
DC50 [2]: < 0.01 µM
Dmax [2]: 71 to 120%

Nc1nnc(-c2ccccc2O)cc1N1CC2CCC(C1)N2c1ccnc(C#CCN2CCCCC(CO)C2)c1 (stereo not drawn) [Compound 214, 2-[6-amino-5-[8-[2-[3-[3-(hydroxymethyl)azepan-1-yl]prop-1-ynyl]-4-pyridyl]-3,8-diazabicyclo[3.2.1]octan-3-yl]pyridazin-3-yl]phenol]
DC50 [1]: < 0.01 µM
BRM IF Degradation Sinf (%) [1]: F (F indicates −71%-−120%)
DC50 [2]: < 0.01 µM
Dmax [2]: 30 to 70%

Nc1nnc(-c2ccccc2O)cc1N1CC2CCC(C1)N2c1ccnc(C#CCN2CCCC(CO)CC2)c1 (stereo not drawn) [Compound 215, 2-[6-amino-5-[8-[2-[3-[4-(hydroxymethyl)azepan-1-yl]prop-1-ynyl]-4-pyridyl]-3,8-diazabicyclo[3.2.1]octan-3-yl]pyridazin-3-yl]phenol]
DC50 [1]: < 0.01 µM
BRM IF Degradation Sinf (%) [1]: F (F indicates −71%-−120%)
DC50 [2]: 0.01 to 0.1 µM
Dmax [2]: 71 to 120%

Nc1nnc(-c2ccccc2O)cc1N1CC2CCC(C1)N2c1ccnc(C#CCN2CCCCCC2CO)c1 (stereo not drawn) [Compound 216, 2-[6-amino-5-[8-[2-[3-[2-(hydroxymethyl)azepan-1-yl]prop-1-ynyl]-4-pyridyl]-3,8-diazabicyclo[3.2.1]octan-3-yl]pyridazin-3-yl]phenol]
DC50 [1]: < 0.01 µM
BRM IF Degradation Sinf (%) [1]: F (F indicates −71%-−120%)
DC50 [2]: < 0.01 µM
Dmax [2]: 71 to 120%

Nc1nnc(-c2ccccc2O)cc1N1CC2CCC(C1)N2c1ccnc(C#CCN2CC3CC(CO)CC32)c1 (stereo not drawn) [Compound 217, 2-[6-amino-5-[8-[2-[3-[3-(hydroxymethyl)-6-azabicyclo[3.2.0]heptan-6-yl]prop-1-ynyl]-4-pyridyl]-3,8-diazabicyclo[3.2.1]octan-3-yl]pyridazin-3-yl]phenol]
DC50 [1]: 0.01 to 0.1 µM
BRM IF Degradation Sinf (%) [1]: E (E indicates −30%-−70%)
DC50 [2]: 0.01 to 0.1 µM
Dmax [2]: 30 to 70%

Nc1nnc(-c2ccccc2O)cc1N1CC2CCC(C1)N2c1ccnc(C#CCN2CCC3CCC2CC3)c1 [Compound 218, 2-[6-amino-5-[8-[2-[3-(2-azabicyclo[3.2.2]nonan-2-yl)prop-1-ynyl]-4-pyridyl]-3,8-diazabicyclo[3.2.1]octan-3-yl]pyridazin-3-yl]henol]
DC50 [1]: < 0.01 µM
BRM IF Degradation Sinf (%) [1]: F (F indicates −71%-−120%)
DC50 [2]: < 0.01 µM
Dmax [2]: 30 to 70%

CC1CC(O)CCN(CC#Cc2cc(N3C4CCC3CN(c3cc(-c5ccccc5O)nnc3N)C4)ccn2)C1 (stereo not drawn) [Compound 219, 1-[3-[4-[3-[3-amino-6-(2-hydroxyphenyl)pyridazin-4-yl]-3,8-diazabicyclo[3.2.1]octan-8-yl]-2-pyridyl]prop-2-ynyl]-6-methyl-azepan-4-ol]
DC50 [1]: < 0.01 µM
BRM IF Degradation Sinf (%) [1]: F (F indicates −71%-−120%)
DC50 [2]: < 0.01 µM
Dmax [2]: 71 to 120%

Nc1nnc(-c2ccccc2O)cc1N1CC2CCC(C1)N2c1ccnc(C#CCN2CCC3CCC2C3)c1 (stereo not drawn) [Compound 221, 2-[6-amino-5-[8-[2-[3-(2-azabicyclo[3.2.1]octan-2-yl)prop-1-ynyl]-4-pyridyl]-3,8-diazabicyclo[3.2.1]octan-3-yl]pyridazin-3-yl]phenol]
DC50 [1]: < 0.01 µM
BRM IF Degradation Sinf (%) [1]: E (E indicates −30%-−70%)
DC50 [2]: < 0.01 µM
Dmax [2]: 30 to 70%

Nc1nnc(-c2ccccc2O)cc1N1CC2CCC(C1)N2c1ccnc(C#CCCN2CCCCCC2)c1 [Compound 222, 2-[6-amino-5-[8-[2-[4-(azepan-l-yl)but-1-ynyl]-4-pyridyl]-3,8-diazabicyclo[3.2.1]octan-3-yl]pyridazin-3-yl]phenol]
DC50 [1]: < 0.01 µM
BRM IF Degradation Sinf (%) [1]: F (F indicates −71%-−120%)
DC50 [2]: < 0.01 µM
Dmax [2]: 71 to 120%

Nc1nnc(-c2ccccc2O)cc1N1CC2CCC(C1)N2c1ccnc(C#CCN2CC(F)(F)C2)c1 [Compound 223, 2-[6-amino-5-[8-[2-[3-(3,3-difluoroazetidin-1-yl)prop-1-ynyl]-4-pyridyl]-3,8-diazabicyclo[3.2.1]octan-3-yl]pyridazin-3-yl]phenol]
DC50 [1]: 0.01 to 0.1 µM
BRM IF Degradation Sinf (%) [1]: E (E indicates −30%-−70%)
DC50 [2]: < 0.01 µM
Dmax [2]: 30 to 70%
